Laboratory results published in patent US20010049373A1, “Materials and methods for killing nematodes and nematode eggs” (priority 2000, published 2001).

System: Caenorhabditis elegans
Assay: C. elegans L1 larvae dose-response, 5 day visual viability score (Examples 2 and 7)
Format: in vivo
Design: key: Dead: only stiff L1s (no movement); Dead (L4): worms are dead, but at a later larval stage; majority of worms are L1 (based on size); majority of worms are L2 (based on size); majority of worms are L3 (based on size); majority of worms are L4 (based on size); AD: majority of worms are adult; #AD: 5 adult worms or less; B!: sterile (0-25 progeny); B: low broodsize (25-100 progeny); ˜B: moderate broodsize (100-250 progeny); <: reduced broodsize (250-500 progeny); OK: no effect (˜1000+ progeny)
Details: viability scored day 5, Table 1; for 5 Day Visual Score V6: 0.3 μM; for 5 Day Visual Score V4: 2.6 μM; for 5 Day Visual Score V2: 23.3 μM; for 5 Day Visual Score V1: 70 μM; for 5 Day Visual Score V3: 7.8 μM; for 5 Day Visual Score V5: 0.9 μM
Experimental: Caenorhabditis elegans adults were grown on Nematode Growth Medium (NGM) until they produced eggs, then the adults were removed.
The eggs were allowed to hatch, and the L1 larvae collected. See The Neniatode Caenorhabditis elegans (1988) Cold Spring Harbor Laboratory Press. Using a Matrix Programmable Pipette, the L1s were distributed into 96-well tissue culture plates, 20 L1 in 50 μl NGM per well. Antibiotic/Antimyotic was added to each well, and 1% by weight E. coli strain HB101. The subject anthelmintic compounds were stored at 5 mM in 100% DMSO. 0.7 μl of compounds 1-31 were added to the left-most column of wells to yield a final concentration of 70 μM in 1.4% DMSO, with 1.4% DMSO only as the control. The compounds were then subjected to 5 more 3-fold dilutions from left to right to yield 6 column concentrations of 70 μM, 23.3 μM, 7.8 μM, 2.6 μM, 0.9 μM, and 0.3 μM. Plates were stored in air-tight Rubbermaid plastic boxes at 20° C. The nematodes had cleared all control wells by day 4, and nematode viability was scored by visual examination under a 100× dissecting microscope on day 5. A visual viability scoring system was used as follows:
If several classes of worms exist in a well, then all classes are scored. If adults are present, then the brood score is also recorded. Thus, “L1/L2” would mean a mixture of L1's and L2's are present in the well. “L4/#AD/B” would mean that a mixture of L4's and adults are resent in the well. The “#AD” would mean that there are 6 or less adults, and the “B” would mean that there were 100 progeny or less.
Column VI has a compound concentration of 70 μM with sequential 3-fold dilutions reported in columns V2, V3, V4, V5, and V6, respectively, such that the V6 concentration was 0.3 μM.
The nematicidal activity of anthelmintic Compositions 48-118 were determined in accordance with the procedure outlined in Example 2.

SMILES | 5 Day Visual Score V6 | 5 Day Visual Score V4 | 5 Day Visual Score V2 | 5 Day Visual Score V1 | 5 Day Visual Score V3 | 5 Day Visual Score V5
O=C(Nc1ccc(OC(F)(F)F)cc1)NC1CCC(c2nc(-c3ccccc3)no2)CC1 (centres unmarked) [AKC 107] | L2/Dead(L | Dead(L4) | Dead(L2/L3) | Dead | – | –
O=C(Nc1ccc(Br)cc1)N1CCC(c2nc(-c3ccccc3)no2)CC1 [AKC 108] | – | L1 | Dead | Dead | L1 | –
O=C(NCCc1ccccc1F)C1C(c2ccccc2Cl)=NOC1c1ccc(-c2ccccc2)cc1 (centres unmarked) [AKC 110] | L1 | L1 | L1 | L1 | L1 | L1
COc1ccccc1-c1noc(C(C)CNC(=O)Nc2ccc(OC(F)(F)F)cc2)n1 (centres unmarked) [AKC 111] | OK (no effect (˜1000+ progeny)) | Dead(L3/L | Dead | Dead | L2 | –
Cc1ccc(-c2noc(C3CCC(CNC(=O)Nc4ccc(OC(F)(F)F)cc4)CC3)n2)cc1C (centres unmarked) [AKC 112] | OK (no effect (˜1000+ progeny)) | – | – | – | – | #AD/˜B
O=C(NCC1CCC(c2nc(-c3ccccc3)no2)CC1)Nc1ccc(OC(F)(F)F)cc1 (centres unmarked) [AKC 113] | L4/#AD/B | Dead(L2/L | Dead | Dead | Dead | –
O=C(Nc1ccc(Br)cc1)NC1CCC(c2nc(-c3ccccc3)no2)CC1 (centres unmarked) [AKC 114] | B (low broodsize (25-100 progeny)) | L3/Dead(L | L3/Dead(L4) | Dead | L3 | –
O=C(NCCCCCc1nc(-c2ccccc2)no1)Nc1ccc(OC(F)(F)F)cc1 [AKC 115] | – | Dead(L2) | Dead(L2/L3) | Dead | L2/Dead(L2) | Dead(L2/L
CC(C)(C)C1=NOC(c2ccc(-c3ccccc3)cc2)C1C(=O)NCCc1ccccc1F (centres unmarked) [AKC 120] | OK (no effect (˜1000+ progeny)) | – | – | L1 | L1 | #AD/˜B
COc1ccc(C2=NOC(c3ccc(-c4ccccc4)cc3)C2C(=O)NCCc2ccccc2F)cc1 (centres unmarked) [AKC 121] | < (reduced broodsize (250-500 progeny)) | #AD/˜B | L1 | L1 | – | –
CCOc1ccc(C2ON=C(c3ccc(F)cc3)C2C(=O)NCCc2ccc(F)cc2)cc1 (centres unmarked) [AKC 122] | OK (no effect (˜1000+ progeny)) | – | L1 | Dead | – | –
CCOc1ccc(C2ON=C(c3ccc(N(C)C)cc3)C2C(=O)NCCc2ccc(F)cc2)cc1 (centres unmarked) [AKC 123] | #AD/˜B | < (reduced broodsize (250-500 progeny)) | – | L1 | – | –
CCOc1cccc(C2ON=C(c3ccccc3OCC)C2C(=O)NCCc2ccc(OC)c(OCC)c2)c1 (centres unmarked) [AKC 124] | L4/#AD/B | L4/#AD/B | – | – | – | L4/#AD/B
